Source: patent US20060106099A1, “Novel inhibitors of ubiquitin isopeptidases” (priority 2002, published 2006)
Where two headings read alike, the source gives them in different places.

Key:
HCT 116 (p53^−/−) = test: MTS cytotoxicity, HCT 116 (p53−/−); assay type: cell-based; conditions: Homo sapiens, log of EC50 in μM, 48 h, read-out: Log EC50 +/− Standard Error of Log EC50, HCT 116 (p53−/−) (converted)
Excerpt: (§1) Cytotoxicity in Human Colon Tumor (HCT) Cell Lines. To determine if punaglandins elicit cytotoxicity independently of the tumor-suppressor p53, as do other dienone prostaglandins, several cytotoxicity assays were employed. First, cell death effects of all isolated punaglandins were investigated in pairs of isogenic colon cancer cell lines, the HCT 116^+/+ competent cell line and HCT 116^−/− null cell lines. HCT 116^+/+ cells are homozygous for p53^+/+ and p21^+/+; where as, HCT 116^−/− cells lack both alleles for p53 (p53^−/−) or p21 (p21^−/−).
(§2) Each cell line was seeded simultaneously in 96-well plates and incubated for 24 h before treatment with individual punaglandins at various concentrations for 48 additional h. Cytotoxicity was determined using MTS and absorbances were recorded at 490 nm. Half maximal effective concentrations (EC50) and Log EC50s were calculated from a concentration-response curve generated using GraphPad Prism (Table 1).

HCT 116 (p21^−/−) = test: MTS cytotoxicity, HCT 116 (p21−/−); assay type: cell-based; conditions: Homo sapiens, log of EC50 in μM, 48 h, read-out: Log EC50 +/− Standard Error of Log EC50, HCT 116 (p21−/−) (converted)
Excerpt: as §1, §2

HCT 116 (p21 wt) = test: MTS cytotoxicity, HCT 116 (p21 wt); assay type: cell-based; conditions: Homo sapiens, log of EC50 in μM, 48 h, read-out: Log EC50 +/− Standard Error of Log EC50, HCT 116 (p21 wt) (converted)
Excerpt: as §1, §2

HCT 116 (p53 wt) = test: MTS cytotoxicity, HCT 116 (p53 wt); assay type: cell-based; conditions: Homo sapiens, 48 h
Excerpt: as §1, §2

RKO cells = test: MTT cell viability assay, RKO cells; conditions: 48 h; for cell death in RKO compared with RKO-E6 cells: MTT, isogenic pair; for EC50: Homo sapiens, RKO, read-out: Cytotoxic Potency (EC50) RKO
ubiquitin isopeptidases [1] = test: Ubiquitin isopeptidase activity, Ub-PEST substrate, lysates of treated RKO and HCT 116 cells; assay type: cell-based, human; conditions: cells treated 6, 20 or 60 μM, 12 h
Description: A) Inhibition of isopeptidase proteolysis of Ub-PEST substrate. RKO and HCT 116 cells were treated with DMSO vehicle, 6, 20, or 60 μM of Δ12-PGJ2, DBA, NSC-302979, or curcumin, 60 μM PGB1, 60 μM NSC-156236, or 60 μM DPTP for 12 h, 37° C. Cell lysates from each treatment were incubated with Ub-PEST, as described in materials and methods. Samples were fractionated by SDS-PAGE and proteins detected with ubiquitin epitopes immunochemically (HCT 116 ^+/+ western blot shown as example of raw data). […] B) Inhibition of isopeptidase activity by test panel compounds. Isopeptidase activity was determined by measuring via densitometry, the amount of Ub generated by isopeptidase cleavage of Ub-PEST. Bar graph patterns are DMSO vehicle (black), Δ12-PGJ2 (hatched), DBA (horizontal lines), NSC-302979 (white), PGB1 (diagonally downward right lines), and NSC-156236 (diagonally downward left lines). The amount of Ub generated in the vehicle treated sample (panel A, lane 2) is arbitrarily designated 100%.
Cellular isopeptidase enzymatic activity was measured with two assays that used different substrates. In one assay ubiquitin-PEST (Ub-PEST) was used, a full-length ubiquitin molecule with an 18 amino acid c-terminal peptide extension (total mass=10.5 kDa). Ubiquitin isopeptidases specifically cleave the 18 amino acid peptide extension, releasing full-length ubiquitin (8.5 kDa).
Briefly, 6×10^5 cells were incubated with 0-60 μM of test compounds for 12 hrs. Cells were lysed in 50 μL of 25 mM HEPES, 5 mM EDTA, 0.1% CHAPS, 5 mM ATP, pH 7.5. The protein concentration of each sample was adjusted to 0.3 mg/mL and incubated with 50 μg/mL Ub-PEST for 45 minutes at 25° C. Under these conditions, Ub-PEST hydrolysis occurs at a linear rate. 20 μL samples were mixed with 20 μL 2× Laemmli buffer, boiled briefly, and fractionated by SDSPAGE. Isopeptidase activity was monitored by determining the amount of product (8.5 kDa ubiquitin) formation.

ubiquitin isopeptidases [2] = test: Ubiquitin isopeptidase activity, z-LRGG-AMC substrate, lysates of treated RKO and HCT 116 cells; assay type: cell-based, human; conditions: cells treated 6, 20 or 60 μM, 12 h
Description: RKO (upper) and HCT 116 ^+/+ cells (lower) were treated with DMSO vehicle, 6, 20, or 60 μM of Δ12-PGJ2, DBA, NSC-302979, or curcumin, 60 μM PGB1, 60 μM NSC-156236, or 60 μM DPTP for 12 h at 37° C. Cell lysates (0.5 mg/mL) from each treatment were incubated with the isopeptidase substrate, z-LRGG-AMC, for 3 h, 37° C. The amount of AMC cleaved by isopeptidase was determined fluorometrically, as described in Materials and Methods.
The second assay used a fluorescent tetrapeptide, z-LRGG-AMC, as a substrate that mimics the carboxy-terminus of ubiquitin. Isopeptidase activity hydrolyzes the bond between the c-terminal glycine and the fluorophore. This tetrapeptide also undergoes slow proteolysis by the catalytic subunit of the proteasome. To minimize this background rate of proteolysis cell lysates were incubated with 30 μM MG115 for 30 minutes at 4° C., prior to substrate incubation (>90% proteasome inhibition). Cells were teeated as above, lysed in 250 μL of lysis buffer per sample, and adjusted protein concentration to 0.5 mg/mL prior to incubation with MG115. Next, z-LRGG-AMC substrate was added and fluorescence was quantified of the AMC moiety cleaved by isopeptidase action.

HCT 116 +/+ cells = test: MTT cell viability assay, HCT 116 p53 +/+ cells; conditions: for cell death in HCT 116 +/+ compared with HCT 116 −/− cells: 48 h, MTT, isogenic pair; for EC50: Homo sapiens, HCT-116, 48 h, read-out: Cytotoxic Potency (EC50) HCT +/+
Description: (§6) Cell viability was measured with MTT reagent as described in materials and methods.
(§7) Cell viability was detected by the MTT assay. Briefly, 1×10^5 cells were incubated per well of a sterile, 96-well assay plate with 0-60 μM of test compounds for 48 hours. MTT reagent was added to each well, final concentration of 0.5 mg/mL, and incubated for an additional 3 hours. The media was aspirated and remaining MTT reagent from each well and added 100 μL of HCl:isopropanol (1:24). The absorbance of each sample was measured at 405 nm.

p53 = p53 accumulation, ratio RKO-E6 cells/RKO cells (immunoblot, densitometry); assay type: cell-based, human; conditions: 6 h; etoposide 50 μM, MG115, NSC-302979, DBA 20 μM, others 60 μM
Description: (§3) A) Accumulation of polyubiquitin. RKO-E6 cells were treated with DMSO vehicle for 24 h, 37° C., or with the concentrations of test compounds that gave 80% cell death (as determined by cell viability assay at 48 h) for 6, 12, or 24 h, 37° C. […] Schematic depicting p53 degradation via the proteasome pathway in RKO cells versus RKO-E6 cells. The activity of the HPV E6 oncoprotein hastens p53 degradation in RKO-E6 cells. ii. RKO and RKO-E6 cells were treated with vehicle, etoposide (50 μM), MG115 (20 μM), Δ12-PGJ2 (60 μM), NSC-302979 (20 μM, DBA (20 μM), curcumin (60 μM), PGB1 (60 μM), NSC-156236, (60 XM)or DPTP 60 μM for 6 h, 37° C. Lysates were fractionated by SDS-PAGE and their p53 content determined immunochemically. iii. p53 levels were measured by densitometry and the ratio of p53 protein in RKO-E6 cells/RKO cells calculated.
(§4) The medium was removed and cells lysed in 50 mM Tris, pH 7.4, 100 mM NaCl, 2 mM EDTA with 0.1% SDS, 0.1% deoxycholate, 1× complete protease inhibitor mixture. Protein concentration was measured by the Bradford method. Equal portions of the total cell lysate were fractionated from each sample (12.5 μg of protein) by SDS-PAGE. Proteins were transferred to poly(vinylidene difluoride) blocked with 5% (w/v) nonfat dry milk in Trisbuffered saline [20 mM Tris-HCl, pH 7.5, 100 mM sodium chloride, 0.1% (v/v) Tween 20]. Proteins were detected immunochemically by using primary antibodies directed against p53 (1:4000) or ubiquitin (1:1000), followed by horseradish peroxidase-conjugated secondary antibodies (1:4000). Antigen-antibody complexes were detected with enhanced chemiluminescence reagents. Gels were scanned and quantified intensities using Kodak 1D Image Analysis Software.

HCT 116 −/− cells = test: MTT cell viability assay, HCT 116 p53 −/− cells; conditions: Homo sapiens, HCT-116, 48 h, read-out: Cytotoxic Potency (EC50) HCT −/−
Description: as §6, §7

[3] = system: polyubiquitin conjugates in RKO-E6 cells; test: Accumulation of polyubiquitin in RKO-E6 cells (immunoblot); assay type: cell-based, human; conditions: EC80 or 60 μM, 6-24 h
Description: as §3, §4

RKO-E6 cells = test: MTT cell viability assay, RKO-E6 cells; conditions: for EC50: Homo sapiens, RKOE6, 48 h, read-out: Cytotoxic Potency (EC50) RKO-E6
Description: as §6, §7

ubiquitin isopeptidases [4] = test: In vivo isopeptidase activity after treatment of RKO cells, Ub-PEST; assay type: cell-based, human; conditions: 6 h
Description: (§5) Isopeptidase Assay. It was hypothesized that the punaglandins would inhibit ubiquitin-isopeptidase activity of the proteasome pathway as does the prostaglandin, Δ^12-PGJ2 (1), but with greater potency because of the chlorinated C-10. To validate this theory, cellular isopeptidase enzymatic activity was measured in vitro after treatment with individual punaglandins, PNG 2 (6), PNG 3 (7), and Z-PNG 4 (9) and in vivo after individual treatment with PNG 4 (8) and PNG 6 (10). This activity was determined utilizing the simple isopeptidase substrate, ubiquitin-PEST (Ub-PEST), a full/length ubiquitin (Ub) molecule fused with an 18-amino acid C-terminal peptide extension that most isopeptidases use as a substrate. The polypeptide extension contains regions rich in Pro (P), Glu (E), Ser (S), and Thr (T) residues called PEST motifs that are responsible for rapid degradation of these and other unstable proteins. Ub isopeptidases specifically cleave this peptide extension, yielding free, full-length Ub. Both the fused Ub-PEST (10.5 kDa) and the cleaved, free Ub (8.5 kDa) can be observed via immunochemical detection.
In vivo Isopeptidase Activity. To investigate whether punaglandins can inhibit isopeptidase activity in vivo, isopeptidase activity was analyzed after punaglandin treatment of RKO cells. PNG 4 (8) and PNG 6 (10) were selected for in vivo investigation because they differ only in enone functionality, where (8) is a dienone and (10) an enone. RKO cells were incubated with 1 μM, 4 μM, or 7 μM of PNG 4 (8) and PNG 6 (10). […] As a positive control, cells were treated with a known isopeptidase inhibitor, shikoccin (SK). After 6 h drug treatment, cells were lysed and protein concentration adjusted to 0.3 mg/mL per sample. Each sample was subsequently incubated with 50 μg/mL of Ub-PEST. The reaction was terminated after 20 min and the respective amounts of Ub-PEST (10 kDa) and free Ub product (8.5 kDa) were determined by SDS-PAGE fractionation.

ubiquitin isopeptidases [5] = test: In vitro isopeptidase activity in HCT 116 lysates, Ub-PEST; assay type: biochemical, human; conditions: HCT 116 lysates, 45 min
Description: as §5
In Vitro Isopeptidase Activity. PNG 2 (6), PNG 3 (7), and Z-PNG 4 (9) were initially analyzed for isopeptidase activity in vitro in HCT 116 lysates. Cells were lysed with isopeptidase activity buffer and protein concentration adjusted to 0.3 mg/mL per sample. Each sample was subsequently incubated with 2 μM, 6 μM, 20 μM, 60 μM, or 200 μM of PNG 2 (6), PNG 3 (7), Z-PNG 4 (9), Δ^12-PGJ2 (1), and PGA1 (2) in addition to 50 μg/ml of Ub-PEST. Negative control cells were treated with vehicle (0.5% DMSO) and equivalent Ub-PEST. […] The amount of fused Ub-PEST and free Ub product was determined by SDS-PAGE fractionation.

[6] = log of EC50 in μM, read-out: Log EC50 +/− Standard Error of Log EC50, HCT 116 (p53 wt) (converted)

| Compound | EC50 (HCT 116 (p53^−/−)) [µM] | EC50 (HCT 116 (p21^−/−)) [µM] | EC50 (HCT 116 (p21 wt)) [µM] | EC50 (HCT 116 (p53 wt); [6]) [µM] | cell death in RKO compared with RKO-E6 cells (RKO cells) | EC50 (RKO cells) [nM] | inhibition of isopeptidase cleavage of Ub-PEST (ubiquitin isopeptidases [1]) | inhibition of z-LRGG-AMC hydrolysis by ubiquitin isopeptidases (ubiquitin isopeptidases [2]) | cell death in HCT 116 +/+ compared with HCT 116 −/− cells (HCT 116 +/+ cells) | EC50 (HCT 116 +/+ cells) [nM] | ratio of p53 protein [RKO-E6 cells/RKO cells] (p53) | EC50 (HCT 116 −/− cells) [nM] | cellular accumulation of polyubiquitin conjugates [3] | EC50 (RKO-E6 cells) [nM] | further results |
| --- | --- | --- | --- | --- | --- | --- | --- | --- | --- | --- | --- | --- | --- | --- | --- |
| CCCCC/C=C\C[C@@]1(O)C=C(Cl)C(=O)[C@@H]1[C@@H](OC(C)=O)[C@H](OC(C)=O)[C@H](CCCC(=O)OC)OC(C)=O [PNG 2] | 0.0398 | 0.0398 | 0.0468 | 0.0398 | – | – | – | – | – | – | – | – | – | – | – |
| O=C(C=Cc1ccccc1)C=Cc1ccccc1 [DBA, dibenzylideneacetone] | – | – | – | – | caused cell death with equal potency and efficacy | 7000 ± 600 | inhibited isopeptidase activity in a concentration dependent manner | inhibited ubiquitin isopeptidase activity | caused cell death with equal potency | 3200 ± 100 | approached unity | 3800 ± 100 | protein species with polyubiquitin conjugation accumulated in cells | 6500 ± 1100 | EC80, concentration that gave 80% cell death (RKO-E6 cells; cell viability assay at 48 h, RKO-E6 cells): 12000 nM |
| O=c1cc(-c2ccccc2)sc(-c2ccccc2)c1 [DPTP, 2,6-Diphenyl-4H-thiopyran-4-one] | – | – | – | – | did not cause significant cell death | > 60000 | did not inhibit isopeptidase activity | did not | did not cause significant cell death | > 60000 | significantly less than unity | > 60000 | did not cause appreciable cellular accumulation of ubiquitin conjugates | > 60000 | – |
| C[C@@H]1C[C@@H]([C@H](O)CC2CC(=O)NC(=O)C2)C(=O)[C@@H](C)C1 [cycloheximide] | – | – | – | – | – | – | – | – | – | – | – | – | – | – | effect on Ub-PEST degradation, control substances (ubiquitin isopeptidases [4]): 1:1 ratio of Ub-PEST to free Ub |
| CCCCC/C=C\C[C@@]1(O)C=C(Cl)C(=O)/C1=C\[C@H](OC(C)=O)[C@H](CCCC(=O)OC)OC(C)=O [Z-PNG 4] | 0.0269 | 0.0324 | 0.0295 | 0.0316 | – | – | – | – | – | – | – | – | – | – | EC50 (HCT 116 (p53 wt); read-out: EC50, cytotoxicity in HCT 116 cell lines): 0.03 µM; concentration at which inhibition of Ub-PEST degradation is initially observed (ubiquitin isopeptidases [5]): 20 µM; concentration of complete (total) inhibition of Ub-PEST degradation (ubiquitin isopeptidases [5]): 60 µM |
